Assay: xn = mol fraction of the nth substance listed
Conditions: 293.15 K, Liquid

CCOS(=O)(=O)[O-].CCn1cc[n+](C)c1 [1-ethyl-3-methylimidazolium ethyl sulfate] + CCO
mass density [kg/m3]
Conditions	100 kPa	2500 kPa	5000 kPa	10000 kPa	15000 kPa	20000 kPa	25000 kPa	30000 kPa	35000 kPa
x1 = 0.05056	860.03	861.91	863.83	867.52	871.06	874.47	877.74	880.91	883.98
x1 = 0.103	917.84	919.6	921.37	924.78	928.08	931.25	934.32	937.28	940.18
x1 = 0.1247	939.1	940.76	942.46	945.77	948.96	952.04	955.03	957.93	960.74
x1 = 0.2126	1007.62	1009.27	1010.81	1013.8	1016.71	1019.53	1022.26	1024.93	1027.53
x1 = 0.2919	1055.3	1056.61	1058.04	1060.8	1063.5	1066.12	1068.67	1071.18	1073.62
x1 = 0.3185	1069.32	1070.62	1071.98	1074.68	1077.32	1079.89	1082.37	1084.82	1087.22
x1 = 0.4198	1112.7	1113.96	1115.24	1117.75	1120.22	1122.63	1124.97	1127.27	1129.54
x1 = 0.4847	1135.13	1136.31	1137.55	1139.97	1142.34	1144.68	1146.94	1149.19	1151.37
x1 = 0.5713	1160.59	1161.75	1162.92	1165.25	1167.52	1169.75	1171.93	1174.07	1176.19
x1 = 0.6827	1187.41	1188.51	1189.64	1191.86	1194.04	1196.18	1198.27	1200.33	1202.37
x1 = 0.7919	1208.95	1210	1211.08	1213.21	1215.31	1217.38	1219.4	1221.4	1223.38
x1 = 0.9317	1230.93	1231.9	1232.97	1235.05	1237.08	1239.09	1241.05	1242.97	1244.9

Reference: the NIST ThermoML archive (doi:10.1021/je900414p)
